Reference: patent publication USRE50082E1, “(5,6-dihydro)pyrimido[4,5-e]indolizines” (NETHERLANDS TRANSLATIONAL RESEARCH CENTER B.V., priority 2014, dated 2024)
Like-named read-outs stand apart in the source and are kept apart here.

What was measured:
[1] = target: T1, Aurora A (Homo sapiens, UniProt O14965); test: Biochemical Aurora A kinase assay (LANCE Ultra TR-FRET)
T1 construct: full-length Aurora A enzyme (Carna Biosciences, cat. no. 05-101); purchased Carna Biosciences 05-101
T1 sequence (O14965 1-403): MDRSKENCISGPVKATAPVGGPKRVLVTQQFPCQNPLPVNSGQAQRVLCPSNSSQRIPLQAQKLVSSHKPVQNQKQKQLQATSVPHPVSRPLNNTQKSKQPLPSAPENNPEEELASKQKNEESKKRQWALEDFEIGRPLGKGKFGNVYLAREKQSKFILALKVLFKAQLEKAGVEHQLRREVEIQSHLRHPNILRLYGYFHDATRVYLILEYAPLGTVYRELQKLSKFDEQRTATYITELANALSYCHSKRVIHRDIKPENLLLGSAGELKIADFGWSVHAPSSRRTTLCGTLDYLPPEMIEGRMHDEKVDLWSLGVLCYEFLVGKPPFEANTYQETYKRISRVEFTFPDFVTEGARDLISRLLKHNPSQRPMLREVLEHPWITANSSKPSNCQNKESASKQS
Description: To determine the inhibitory activity of the compounds on Aurora A, the LANCE® Ultra TR-FRET assay (Perkin Elmer) was used. […] After 2 hours, the reaction was stopped by the addition of 5 μl 100 mM EDTA. […] Time-resolved fluorescence was measured on an Envision multilabel reader (Perkin Elmer, Waltham, Mass., USA). IC50 were calculated using XLfit™5 software (ID Business Solutions, Ltd., Surrey, U.K.).

[2] = target: Polo-like kinase 1 (PLK1) (Homo sapiens, UniProt P53350); test: Biochemical Polo-like kinase 1 kinase assay (LANCE Ultra TR-FRET)
Description: To determine the inhibitory activity of the compounds on Polo-like kinase 1 (PLK1), the LANCE® Ultra TR-FRET assay (Perkin Elmer) was used. […] After 4 hours, the reaction was stopped by the addition of 5 μl 100 mM EDTA. […] Time-resolved fluorescence was measured on an Envision multilabel reader (Perkin Elmer, Waltham, Mass. USA). IC50 were calculated using XLfit™5 software (ID Business Solutions, Ltd., Surrey, U.K.).

[3] = target: T2, Aurora C (Homo sapiens, UniProt Q9UQB9); test: Biochemical Aurora C kinase assay (LANCE Ultra TR-FRET)
T2 construct: full-length Aurora C enzyme (Carna Biosciences, cat. no. 05-103); purchased Carna Biosciences 05-103
T2 sequence (Q9UQB9 1-309): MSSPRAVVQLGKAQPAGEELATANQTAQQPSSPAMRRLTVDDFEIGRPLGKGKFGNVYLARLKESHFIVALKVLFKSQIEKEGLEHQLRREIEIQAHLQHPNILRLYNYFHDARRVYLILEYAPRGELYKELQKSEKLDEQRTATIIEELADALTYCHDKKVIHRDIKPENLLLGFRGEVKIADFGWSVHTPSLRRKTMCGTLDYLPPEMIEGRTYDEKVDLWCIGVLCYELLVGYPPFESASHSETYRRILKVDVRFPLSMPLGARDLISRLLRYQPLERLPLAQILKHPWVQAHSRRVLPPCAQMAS
Description: To determine the inhibitory activity of the compounds on Aurora C, the LANCE® Ultra TR-FRET assay (Perkin Elmer) was used. […] After pre-incubation of 1 hour in the dark at room temperature, ULightTM-labeled PLK([MUT]) substrate peptide (Perkin Elmer, cat. no. TRF-0110) and ATP were added, to start the reaction. […] After 3 hours, the reaction was stopped by the addition of 5 μl 100 mM EDTA. […] Time-resolved fluorescence was measured on an Envision multilabel reader (Perkin Elmer, Waltham, Mass., USA). IC50 were calculated using XLfitTM5 software (ID Business Solutions, Ltd., Surrey, U.K.).

[4] = test system: MOLT-4 cancer cell line; test: Cell proliferation assay, MOLT-4 cancer cell line (ATPlite); assay type: cell-based; conditions: Homo sapiens, MOLT-4;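 note: luminescence read-out, percent growth versus compound-free DMSO wells as maximum growth, start-of-incubation signal separating growth from cell death, IC50 from logistic curve fit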
[5] = 72 hours incubation, ATPlite 1Step, read-out: IC50 MOLT-4 cell proliferation

Polo-like kinase 1 (PLK1), sequence (P53350 whole entry): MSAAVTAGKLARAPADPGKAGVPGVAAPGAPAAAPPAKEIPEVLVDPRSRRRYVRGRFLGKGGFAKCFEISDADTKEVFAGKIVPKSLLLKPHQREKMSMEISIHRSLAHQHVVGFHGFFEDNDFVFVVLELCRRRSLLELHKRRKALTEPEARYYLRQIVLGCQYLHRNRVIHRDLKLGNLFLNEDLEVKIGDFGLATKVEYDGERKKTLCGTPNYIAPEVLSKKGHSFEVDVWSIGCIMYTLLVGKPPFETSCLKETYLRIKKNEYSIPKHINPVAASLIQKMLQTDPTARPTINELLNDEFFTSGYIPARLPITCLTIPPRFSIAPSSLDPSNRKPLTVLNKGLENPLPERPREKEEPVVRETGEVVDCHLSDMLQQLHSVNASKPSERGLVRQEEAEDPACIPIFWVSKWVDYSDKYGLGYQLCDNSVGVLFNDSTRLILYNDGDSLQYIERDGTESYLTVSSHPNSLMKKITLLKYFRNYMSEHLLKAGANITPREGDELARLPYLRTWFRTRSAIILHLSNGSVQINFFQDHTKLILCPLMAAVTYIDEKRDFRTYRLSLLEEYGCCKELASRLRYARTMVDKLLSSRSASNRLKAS

Row | IC50 [4, 5] [nM] | Compound | also measured
1 | – | CCOCCOCCn1nc(CC)c(NC(=O)c2ccn3c2CCc2cnc(Nc4ccc(N5CCN(C)CC5)cc4OC)nc2-3)c1CC [Example 150, N-[1-[2-(2-ethoxyethoxy)ethyl]-3,5-diethyl-pyrazol-4-yl]-2-[2-methoxy-4-(4-methylpiperazin-1-yl)anilino]-5,6-dihydropyrimido[4,5-e]indolizine-7-carboxamide] | AurA Selectivity ([1]; IC50 AurA/IC50 TTK (biochemical assays)): >200; IC50 ([1]; full-length Aurora A, 2 μM ATP): ≥ 100 nM; IC50 [2]: ≥ 250 nM; PLK1 Selectivity ([2]; IC50 PLK1/IC50 TTK (biochemical assays)): >500; AurC Selectivity ([3]; IC50 AurC/IC50 TTK (biochemical assays)): >500; IC50 ([3]; full-length Aurora C, 5 μM ATP): ≥ 100 nM; IC50 ([4]; worded 'TTK cellular assay', read-out: IC50 in the TTK cellular assay): < 50 nM
2 | < 50 | CCc1cccc(CC)c1NC(=O)c1ccn2c1CCc1cnc(Nc3ccc(N4CCOCC4)cc3C)nc1-2 [Example 83, N-(2,6-diethylphenyl)-2-(2-methyl-4-morpholino-anilino)-5,6-dihydropyrimido[4,5-e]indolizine-7-carboxamide] | –
3 | < 50 | Cc1cc(N2CCNCC2)ccc1Nc1ncc2c(n1)-n1ccc(C(=O)Nc3c(Cl)cccc3Cl)c1CC2 [Example 79, N-(2,6-dichlorophenyl)-2-(2-methyl-4-piperazin-1-yl-anilino)-5,6-dihydropyrimido[4,5-e]indolizine-7-carboxamide] | –
4 | 50 to 150 | CCc1n[nH]c(CC)c1NC(=O)c1ccn2c1CCc1cnc(Nc3ccc(OC4CNC4)cc3OC)nc1-2 [Example 92, 2-[4-(Azetidin-3-yloxy)-2-methoxy-anilino]-N-(3,5-diethyl-pyrazol-4-yl)-5,6-dihydropyrimido[4,5-e]indolizine-7-carboxamide] | –
5 | 50 to 150 | CCc1cccc(CC)c1NC(=O)c1ccn2c1CCc1cnc(Nc3ccc(-c4cnn(C)c4)cc3OC)nc1-2 [Example 38, N-(2,6-diethylphenyl)-2-[2-methoxy-4-(1-methylpyrazol-4-yl)anilino]-5,6-dihydropyrimido[4,5-e]indolizine-7-carboxamide] | –
6 | < 50 | CCc1n[nH]c(CC)c1NC(=O)c1ccn2c1CCc1cnc(Nc3ccc(N4CCN(C)CC4)cc3C)nc1-2 [Example 9, N-(3,5-diethyl-1H-pyrazol-4-yl)-2-[2-methyl-4-(4-methylpiperazin-1-yl)anilino]-5,6-dihydropyrimido[4,5-e]indolizine-7-carboxamide] | –
7 | < 50 | [2H]C([2H])([2H])Oc1cc(N2CCN(C)CC2)ccc1Nc1ncc2c(n1)-n1ccc(C(=O)Nc3c(CC)nn(CCOC)c3CC)c1CC2 [Example 100, N-[3,5-diethyl-1-(2-methoxyethyl)pyrazol-4-yl]-2-[4-(4-methylpiperazin-1-yl)-2-(trideuteriomethoxy)anilino]-5,6-dihydropyrimido[4,5-e]indolizine-7-carboxamide] | –
8 | < 50 | CCc1n[nH]c(CC)c1NC(=O)c1ccn2c1CCc1cnc(Nc3ccc(OC4CCN(C)CC4)cc3C)nc1-2 [Example 47, N-(3,5-diethyl-1H-pyrazol-4-yl)-2-[2-methyl-4-[(1-methyl-4-piperidyl)oxy]anilino]-5,6-dihydropyrimido[4,5-e]indolizine-7-carboxamide] | –
9 | 50 to 150 | COc1cc(C(=O)NCCN2CCCCC2)ccc1Nc1ncc2c(n1)-n1ccc(C(=O)Nc3c(C)cccc3C)c1CC2 [Example 128, N-(2,6-dimethylphenyl)-2-[2-methoxy-4-[2-(1-piperidyl)ethylcarbamoyl]anilino]-5,6-dihydropyrimido[4,5-e]indolizine-7-carboxamide] | –
10 | 50 to 150 | CCc1ccccc1NC(=O)c1ccn2c1CCc1cnc(Nc3ccc(N4CCN(C)CC4)cc3OC)nc1-2 [Example 29, N-(2-ethylphenyl)-2-[2-methoxy-4-(4-methylpiperazin-1-yl)anilino]-5,6-dihydropyrimido[4,5-e]indolizine-7-carboxamide] | –
11 | < 50 | Cc1cccc(C)c1NC(=O)c1ccn2c1CCc1cnc(Nc3ccc(C(=O)NC4CCN(C)CC4)cc3OC(F)F)nc1-2 [Example 37, 2-[2-(Difluoromethoxy)-4-[(1-methyl-4-piperidyl)carbamoyl]anilino]-N-(2,6-dimethylphenyl)-5,6-dihydropyrimido[4,5-e]indolizine-7-carboxamide] | –
12 | 50 to 150 | COc1cc(N2CCN(C)CC2)ccc1Nc1ncc2c(n1)-n1ccc(C(=O)Nc3c(C)ccnc3Cl)c1CC2 [Example 25, N-(2-chloro-4-methyl-3-pyridyl)-2-[2-methoxy-4-(4-methylpiperazin-1-yl)anilino]-5,6-dihydropyrimido[4,5-e]indolizine-7-carboxamide] | –
13 | 50 to 150 | COc1cc(N2CCNCC2)ccc1Nc1ncc2c(n1)-n1ccc(C(=O)Nc3c(C)nn(CC(C)(C)O)c3C)c1CC2 [Example 98, N-[1-(2-hydroxy-2-methyl-propyl)-3,5-dimethyl-pyrazol-4-yl]-2-(2-methoxy-4-piperazin-1-yl-anilino)-5,6-dihydropyrimido[4,5-e]indolizine-7-carboxamide] | –
14 | < 50 | COc1cc(C(=O)N2CCOCC2)ccc1Nc1ncc2c(n1)-n1ccc(C(=O)Nc3c(C)cccc3C)c1CC2 [Example 122, N-(2,6-dimethylphenyl)-2-[2-methoxy-4-(morpholine-4-carbonyl)anilino]-5,6-dihydropyrimido[4,5-e]indolizine-7-carboxamide] | –
15 | < 50 | Cc1cccc(C)c1NC(=O)c1ccn2c1CCc1cnc(Nc3ccc(N4CCOCC4)nc3C)nc1-2 [Example 68, N-(2,6-dimethylphenyl)-2-[(2-methyl-6-morpholino-3-pyridyl)amino]-5,6-dihydropyrimido[4,5-e]indolizine-7-carboxamide] | –
16 | 50 to 150 | COCCn1nc(C)c(NC(=O)c2ccn3c2CCc2cnc(Nc4ccc(OC5CCN(C)CC5)cc4OC)nc2-3)c1C [Example 44, N-[1-(2-methoxyethyl)-3,5-dimethyl-pyrazol-4-yl]-2-[2-methoxy-4-[(1-methyl-4-piperidyl)oxy]anilino]-5,6-dihydropyrimido[4,5-e]indolizine-7-carboxamide] | –
17 | 50 to 150 | COc1cc(N2CCN(C)CC2)ccc1Nc1ncc2c(n1)-n1ccc(C(=O)Nc3c(C)cccc3OC)c1CC2 [Example 10, N-(2-methoxy-6-methyl-phenyl)-2-[2-methoxy-4-(4-methylpiperazin-1-yl)anilino]-5,6-dihydropyrimido[4,5-e]indolizine-7-carboxamide] | –
18 | < 50 | Cc1cc(OC2CCN(C)CC2)ccc1Nc1ncc2c(n1)-n1ccc(C(=O)Nc3c(C)cccc3Cl)c1CC2 [Example 46, N-(2-chloro-6-methyl-phenyl)-2-[2-methyl-4-[(1-methyl-4-piperidyl)oxy]anilino]-5,6-dihydropyrimido[4,5-e]indolizine-7-carboxamide] | –
19 | 50 to 150 | CCc1cccc(CC)c1NC(=O)c1ccn2c1CCc1cnc(Nc3ccc(C(=O)NC4CCN(C)CC4)cc3C)nc1-2 [Example 36, N-(2,6-diethylphenyl)-2-[2-methyl-4-[(1-methyl-4-piperidyl)carbamoyl]anilino]-5,6-dihydropyrimido[4,5-e]indolizine-7-carboxamide] | –
20 | < 50 | CCNC(=O)N1CCN(c2ccc(Nc3ncc4c(n3)-n3ccc(C(=O)Nc5c(C)cccc5C)c3CC4)c(OC)c2)CC1 [Example 114, N-(2,6-dimethylphenyl)-2-[4-[4-(ethylcarbamoyl)piperazin-1-yl]-2-methoxy-anilino]-5,6-dihydropyrimido[4,5-e]indolizine-7-carboxamide] | –
21 | < 50 | CCc1cccc(CC)c1NC(=O)c1ccn2c1CCc1cnc(Nc3ccc(N4CCNCC4)cc3OC)nc1-2 [Example 76, N-(2,6-diethylphenyl)-2-(2-methoxy-4-piperazin-1-yl-anilino)-5,6-dihydropyrimido[4,5-e]indolizine-7-carboxamide] | –
22 | < 50 | COc1cc(C(=O)NC(C)C)ccc1Nc1ncc2c(n1)-n1ccc(C(=O)Nc3c(C)cccc3C)c1CC2 [Example 120, N-(2,6-dimethylphenyl)-2-[4-(isopropylcarbamoyl)-2-methoxy-anilino]-5,6-dihydropyrimido[4,5-e]indolizine-7-carboxamide] | –

Row | Compound | IC50 [4, 5] [nM] | also measured
23 | COc1cc(C(=O)NC2CCOCC2)ccc1Nc1ncc2c(n1)-n1ccc(C(=O)Nc3c(C)cccc3C)c1CC2 [Example 103, N-(2,6-dimethylphenyl)-2-[2-methoxy-4-(tetrahydropyran-4-ylcarbamoyl)anilino]-5,6-dihydropyrimido[4,5-e]indolizine-7-carboxamide] | < 50 | –
24 | COc1cc(OC2CCN(C)CC2)ccc1Nc1ncc2c(n1)-n1ccc(C(=O)Nc3c(C)n[nH]c3C)c1CC2 [Example 15, N-(3,5-dimethyl-1H-pyrazol-4-yl)-2-[2-methoxy-4-[(1-methyl-4-piperidyl)oxy]anilino]-5,6-dihydropyrimido[4,5-e]indolizine-7-carboxamide] | 50 to 150 | –
